Experimental data as given in US20250057846A1, “COMBINATION OF A TASK1/3 CHANNEL BLOCKER WITH A MUSCARINIC RECEPTOR ANTAGONIST FOR THE TREATMENT OF SLEEP APNEA” (BAYER AKTIENGESELLSCHAFT, priority 2021, published 2025).

System: pig model of obstructive sleep apnea (OSA)
Test: pig model of obstructive sleep apnea (OSA): collapsibility of the upper respiratory tract under negative pressure
Format: in vivo, German Landrace pigs
Description: The therapeutic potential of the combination of a TASK1/3 channel blocker with a muscarinic receptor antagonist according to the present invention in sleep apnea can be assessed preclinically in a pig model of obstructive sleep apnea (OSA).
Using negative pressure, it is possible to induce collapse and thus obstruction of the upper respiratory tract in anaesthetized, spontaneously breathing pigs (Wirth K. J. et al., Sleep 36(5) (2013) pp. 699-708).
German Landrace pigs are used for the model. The pigs are anaesthetized and tracheotomized. Two tracheal cannulas are inserted into the trachea, one into the rostral part and the other into the caudal part of the trachea.
Using a connection piece, the rostral cannula is connected to a tube to the negative pressure device and to the distal tracheal cannula. The distal tracheal cannula is additionally connected to a tube with an open end to atmosphere via a connection piece that served for free tracheal breathing, circumventing the upper airway. By appropriate opening and clamping of those tubes breathing can be switched from nasal breathing to breathing through the caudal tracheal cannula, circumventing the upper airway, and the (isolated) upper airway can be connected to the negative pressure device, causing airflow in the inspiratory direction.
At certain points in time, the collapsibility of the upper respiratory tract is tested by having the pig breathe via the caudal cannula and applying negative pressures of −50, −100 and −150 cm water head (cm H2O) to the upper respiratory tract. This causes the upper respiratory tract to collapse, which manifests itself in an interruption of the airflow and a pressure drop in the tube system. This test is conducted prior to the administration of the test substance and at certain intervals after the administration of the test substance. An appropriately effective test substance can prevent this collapse of the respiratory tract in the inspiratory phase.

[1] = TASK1/TASK3 channel blocker alone, intranasal 0.3 μg, given at 0 min, time 0 min
[2] = TASK1/TASK3 channel blocker alone, intranasal 0.3 μg, given at 0 min, time 10 min
[3] = TASK1/TASK3 channel blocker alone, intranasal 0.3 μg, given at 0 min, time 30 min
[4] = TASK1/TASK3 channel blocker alone, intranasal 0.3 μg, given at 0 min, time 60 min
[5] = TASK1/TASK3 channel blocker alone, intranasal 0.3 μg, given at 0 min, time 90 min
[6] = R-oxybutynin i.v. bolus 1 mg/kg then i.v. infusion 0.275 mg/kg/h for four hours, given at 0 min, time 0 min
[7] = R-oxybutynin i.v. bolus 1 mg/kg then i.v. infusion 0.275 mg/kg/h for four hours, given at 0 min, time 10 min
[8] = R-oxybutynin i.v. bolus 1 mg/kg then i.v. infusion 0.275 mg/kg/h for four hours, given at 0 min, time 30 min
[9] = R-oxybutynin i.v. bolus 1 mg/kg then i.v. infusion 0.275 mg/kg/h for four hours, given at 0 min, time 60 min
[10] = R-oxybutynin i.v. bolus 1 mg/kg then i.v. infusion 0.275 mg/kg/h for four hours, given at 0 min, time 120 min
[11] = R-oxybutynin i.v. bolus 1 mg/kg then i.v. infusion 0.275 mg/kg/h for four hours, given at 0 min, time 180 min
[12] = R-oxybutynin i.v. bolus 1 mg/kg then i.v. infusion 0.275 mg/kg/h for four hours, given at 0 min, time 240 min
[13] = R-oxybutynin i.v. bolus 1 mg/kg then i.v. infusion 0.275 mg/kg/h for four hours, given at 0 min, time 300 min
[14] = combination experiment: R-oxybutynin i.v. bolus 1 mg/kg then infusion 0.275 mg/kg/h for four hours at 0 min, nasal TASK1/3 channel blocker only given at 120 min, time 0 min
[15] = combination experiment: R-oxybutynin i.v. bolus 1 mg/kg then infusion 0.275 mg/kg/h for four hours at 0 min, nasal TASK1/3 channel blocker only given at 120 min, time 10 min
[16] = combination experiment: R-oxybutynin i.v. bolus 1 mg/kg then infusion 0.275 mg/kg/h for four hours at 0 min, nasal TASK1/3 channel blocker only given at 120 min, time 30 min
[17] = combination experiment: R-oxybutynin i.v. bolus 1 mg/kg then infusion 0.275 mg/kg/h for four hours at 0 min, nasal TASK1/3 channel blocker only given at 120 min, time 60 min
[18] = combination experiment: R-oxybutynin i.v. bolus 1 mg/kg then infusion 0.275 mg/kg/h for four hours at 0 min, nasal TASK1/3 channel blocker only given at 120 min, time 90 min
[19] = combination experiment: R-oxybutynin i.v. bolus 1 mg/kg then infusion 0.275 mg/kg/h for four hours at 0 min, time 120 min = time of nasal application of TASK1/3 channel blocker
[20] = oxybutynin i.v. bolus 1 mg/kg then i.v. infusion 0.275 mg/kg/h for four hours, given at 0 min, time 0 min

COc1ccc(Cl)c(C(=O)N2C3CCC2CN(Cc2c(-c4ccc(C(C)C)cc4)nc4ncccn24)C3)n1 [(3-Chloro-6-methoxypyridin-2-yl)(3-{[2-(4-isopropylphenyl)imidazo[1,2-a]pyrimidin-3-yl]methyl}-3,8-diazabicyclo[3.2.1]oct-8-yl)methanone]
effect of the dose on upper airway collapsibility (TASK1/TASK3 channel blocker alone, 0.3 μg): non effective dose
Percent pigs without collaps −50 cm H2O, % [1]: 0%
Percent pigs without collaps −100 cm H2O, % [1]: 0%
Percent pigs without collaps −150 cm H2O, % [1]: 0%
Percent pigs without collaps −50 cm H2O, % [2]: 33%
Percent pigs without collaps −100 cm H2O, % [2]: 33%
Percent pigs without collaps −150 cm H2O, % [2]: 0%
Percent pigs without collaps −50 cm H2O, % [3]: 0%
Percent pigs without collaps −100 cm H2O, % [3]: 0%
Percent pigs without collaps −150 cm H2O, % [3]: 0%
Percent pigs without collaps −50 cm H2O, % [4]: 0%
Percent pigs without collaps −100 cm H2O, % [4]: 0%
Percent pigs without collaps −150 cm H2O, % [4]: 0%
Percent pigs without collaps −50 cm H2O, % [5]: 0%
Percent pigs without collaps −100 cm H2O, % [5]: 0%
Percent pigs without collaps −150 cm H2O, % [5]: 0%

CCN(CC)CC#CCOC(=O)[C@](O)(c1ccccc1)C1CCCCC1 [R-oxybutynin, R-Oxybutynin]
time points at which upper airway collapsibility was inhibited at all negative pressures of −50, −100 and −150 cm head (cm H2O) in all pigs (R-Oxybutynin i.v. bolus 1 mg/kg then i.v. infusion 0,275 mg/kg/h for four hours): at no time
upper airway collapsibility at the negative pressure of −50 cm head (cm H2O) (R-Oxybutynin i.v. bolus 1 mg/kg then i.v. infusion 0,275 mg/kg/h for four hours, time point 60 min after intravenous administration): inhibited
Percent pigs without collaps −50 cm H2O, % [6]: 0%
Percent pigs without collaps −100 cm H2O, % [6]: 0%
Percent pigs without collaps −150 cm H2O, % [6]: 0%
Percent pigs without collaps −50 cm H2O, % [7]: 0%
Percent pigs without collaps −100 cm H2O, % [7]: 0%
Percent pigs without collaps −150 cm H2O, % [7]: 0%
Percent pigs without collaps −50 cm H2O, % [8]: 0%
Percent pigs without collaps −100 cm H2O, % [8]: 0%
Percent pigs without collaps −150 cm H2O, % [8]: 0%
Percent pigs without collaps −50 cm H2O, % [9]: 100%
Percent pigs without collaps −100 cm H2O, % [9]: 50%
Percent pigs without collaps −150 cm H2O, % [9]: 0%
Percent pigs without collaps −50 cm H2O, % [10]: 0%
Percent pigs without collaps −100 cm H2O, % [10]: 0%
Percent pigs without collaps −150 cm H2O, % [10]: 0%
Percent pigs without collaps −50 cm H2O, % [11]: 0%
Percent pigs without collaps −100 cm H2O, % [11]: 0%
Percent pigs without collaps −150 cm H2O, % [11]: 0%
Percent pigs without collaps −50 cm H2O, % [12]: 0%
Percent pigs without collaps −100 cm H2O, % [12]: 0%
Percent pigs without collaps −150 cm H2O, % [12]: 0%
Percent pigs without collaps −50 cm H2O, % [13]: 0%
Percent pigs without collaps −100 cm H2O, % [13]: 0%
Percent pigs without collaps −150 cm H2O, % [13]: 0%
Percent pigs without collaps −50 cm H2O, % [14]: 0%
Percent pigs without collaps −100 cm H2O, % [14]: 0%
Percent pigs without collaps −150 cm H2O, % [14]: 0%
Percent pigs without collaps −50 cm H2O, % [15]: 0%
Percent pigs without collaps −100 cm H2O, % [15]: 0%
Percent pigs without collaps −150 cm H2O, % [15]: 0%
Percent pigs without collaps −50 cm H2O, % [16]: 0%
Percent pigs without collaps −100 cm H2O, % [16]: 0%
Percent pigs without collaps −150 cm H2O, % [16]: 0%
Percent pigs without collaps −50 cm H2O, % [17]: 100%
Percent pigs without collaps −100 cm H2O, % [17]: 33%
Percent pigs without collaps −150 cm H2O, % [17]: 0%
Percent pigs without collaps −50 cm H2O, % [18]: 0%
Percent pigs without collaps −100 cm H2O, % [18]: 0%
Percent pigs without collaps −150 cm H2O, % [18]: 0%
Percent pigs without collaps −50 cm H2O, % [19]: 0%
Percent pigs without collaps −100 cm H2O, % [19]: 0%
Percent pigs without collaps −150 cm H2O, % [19]: 0%

CCN(CC)CC#CCOC(=O)C(O)(c1ccccc1)C1CCCCC1 (stereo not shown) [oxybutynin, Oxybutynin]
Percent pigs without collaps −50 cm H2O, % [20]: 0%
Percent pigs without collaps −100 cm H2O, % [20]: 0%
Percent pigs without collaps −150 cm H2O, % [20]: 0%
time points at which upper airway collapsibility was inhibited at all three negative pressures of −50, −100 and −150 cm head (cm H2O) in all pigs (oxybutynin i.v. bolus 1 mg/kg then i.v. infusion 0,275 mg/kg/h for four hours): at no time point
